Experimental data as given in patent US5292734A, “Angiotensin II receptor blocking 2,3,6 substituted quinazolinones” (American Cyanamid Company, priority 1993, dated 1994).
“And” between values parts separate entries of the source, which are not always exact repeats. Equal values may be shown once.

Tested on: Angiotensin II (AII) vasopressor response
Test: AII challenge: vasopressor response of angiotensin II in conscious SHR
Format: in vivo, rat (Conscious Male Okamoto-Aoki SHR)
Conditions: for % Inhibition / Average Change: SHR n = 2; for Response After AII / Change / Control Before AII: single rat, SHR
Description: By administering a compound of this invention to a rat, and then challenging with angiotensin II, a blockage of the vasopressor response is realized.
Conscious Male Okamoto-Aoki SHR, 16-20 weeks old, weighing approximately 330 g are purchased from Charles River Labs (Wilmington, Mass.). Conscious rats are restrained in a supine position with elastic tape. The area at the base of the tail is locally anesthetized by subcutaneous infiltration with 2% procaine. The ventral caudal artery and vein are isolated, and a cannula made of polyethylene (PE) 10-20 tubing (fused together by heat) is passed into the lower abdominal aorta and vena cava, respectively. The cannula is secured, heparinized (1,000 I.U./ml), sealed and the wound is closed. The animals are placed in plastic restraining cages in an upright position. The cannula is attached to a Statham P23Db pressure transducer, and pulsatile blood pressure is recorded to 10-15 minutes with a Gould Brush recorder. (Chan et al., (Drug Development Res., 18:75-94, 1989).
Angiotensin II (human sequence, Sigma Chem. Co., St. Louis, Mo.) of 0.05 and 0.1 ug/kg i.v. is injected into all rats (predosing response). Then a test compound, vehicle or a known angiotensin II antagonist is administered i.v., i.p. or orally to each set of rats. The two doses of angiotensin II are given to each rat again at 30, 60, 90, 120, 180, 240 and 300 minutes post dosing the compound or vehicle. The vasopressor response of angiotensin II is measured for the increase in systolic blood pressure in mmhg. The percentage of antagonism or blockade of the vasopressor response of angiotensin II by a compound is calculated using the vasopressor response (increase in systolic blood pressure) of angiotensin II of each rat predosing the compound as 100%. A compound is considered active if at 30 mg/kg i.v. it antagonized at least 50% of the response.

[1] = 1 mg/kg I.V., AII 0.05 mcg/kg IV, 30 min post dose
[2] = 1 mg/kg I.V., AII 0.05 mcg/kg IV, 60 min post dose
[3] = 1 mg/kg I.V., AII 0.05 mcg/kg IV, 90 min post dose
[4] = 1 mg/kg I.V., AII 0.05 mcg/kg IV, 120 min post dose
[5] = 1 mg/kg I.V., AII 0.05 mcg/kg IV, 180 min post dose
[6] = 1 mg/kg I.V., AII 0.05 mcg/kg IV, 240 min post dose
[7] = 1 mg/kg I.V., AII 0.1 mcg/kg IV, 30 min post dose
[8] = 1 mg/kg I.V., AII 0.1 mcg/kg IV, 60 min post dose
[9] = 1 mg/kg I.V., AII 0.1 mcg/kg IV, 90 min post dose
[10] = 1 mg/kg I.V., AII 0.1 mcg/kg IV, 120 min post dose
[11] = 1 mg/kg I.V., AII 0.1 mcg/kg IV, 180 min post dose
[12] = 1 mg/kg I.V., AII 0.1 mcg/kg IV, 240 min post dose
[13] = 2 mg/kg P.O., AII 0.05 mcg/kg IV, 30 min post dose
[14] = 2 mg/kg P.O., AII 0.05 mcg/kg IV, 60 min post dose
[15] = 2 mg/kg P.O., AII 0.05 mcg/kg IV, 90 min post dose
[16] = 2 mg/kg P.O., AII 0.05 mcg/kg IV, 120 min post dose
[17] = 2 mg/kg P.O., AII 0.05 mcg/kg IV, 180 min post dose
[18] = 2 mg/kg P.O., AII 0.1 mcg/kg IV, 30 min post dose
[19] = 2 mg/kg P.O., AII 0.1 mcg/kg IV, 60 min post dose
[20] = 2 mg/kg P.O., AII 0.1 mcg/kg IV, 90 min post dose
[21] = 2 mg/kg P.O., AII 0.1 mcg/kg IV, 120 min post dose
[22] = 2 mg/kg P.O., AII 0.1 mcg/kg IV, 180 min post dose
[23] = 1 mg/kg I.V., AII 0.05 mcg/kg IV, 30 min post dose, 1 mg/kg
[24] = 1 mg/kg I.V., AII 0.05 mcg/kg IV, 60 min post dose, 1 mg/kg
[25] = 1 mg/kg I.V., AII 0.05 mcg/kg IV, 90 min post dose, 1 mg/kg
[26] = 1 mg/kg I.V., AII 0.05 mcg/kg IV, 180 min post dose, 1 mg/kg
[27] = 1 mg/kg I.V., AII 0.05 mcg/kg IV, 240 min post dose, 1 mg/kg
[28] = 1 mg/kg I.V., AII 0.1 mcg/kg IV, 30 min post dose, 1 mg/kg
[29] = 1 mg/kg I.V., AII 0.1 mcg/kg IV, 60 min post dose, 1 mg/kg
[30] = 1 mg/kg I.V., AII 0.1 mcg/kg IV, 90 min post dose, 1 mg/kg
[31] = 1 mg/kg I.V., AII 0.1 mcg/kg IV, 120 min post dose, 1 mg/kg
[32] = 1 mg/kg I.V., AII 0.1 mcg/kg IV, 180 min post dose, 1 mg/kg
[33] = 1 mg/kg I.V., AII 0.1 mcg/kg IV, 240 min post dose, 1 mg/kg
[34] = 2 mg/kg P.O., AII 0.05 mcg/kg IV, 30 min post dose, 2 mg/kg
[35] = 2 mg/kg P.O., AII 0.05 mcg/kg IV, 90 min post dose, 2 mg/kg
[36] = 2 mg/kg P.O., AII 0.05 mcg/kg IV, 120 min post dose, 2 mg/kg
[37] = 2 mg/kg P.O., AII 0.05 mcg/kg IV, 180 min post dose, 2 mg/kg
[38] = 2 mg/kg P.O., AII 0.1 mcg/kg IV, 60 min post dose, 2 mg/kg
[39] = 2 mg/kg P.O., AII 0.1 mcg/kg IV, 120 min post dose, 2 mg/kg
[40] = 2 mg/kg P.O., AII 0.1 mcg/kg IV, 180 min post dose, 2 mg/kg

Structure (SMILES): CCCCc1nc2ccc(C(C)(O)CC3CCCN3)cc2c(=O)n1Cc1ccc(-c2ccccc2-c2nnn[nH]2)cc1 (stereo not drawn) [Example 79, CIS-2-Butyl-6-[1-hydroxy-1-methyl-2-(2-pyrrolidinyl)ethyl]-3-[[21-(1H-tetrazol-5-yl)[1,1'-biphenyl]-4-yl]methyl]-4(3H)-quinazolinone]
- % Inhibition [1]: 93%
- Average Change [1]: 2.5 mmhg
- % Inhibition [2]: 67%
- Average Change [2]: 12.5 mmhg
- % Inhibition [3]: 53%
- Average Change [3]: 17.5 mmhg
- % Inhibition [4]: 47%
- Average Change [4]: 20 mmhg
- % Inhibition [5]: 53%
- Average Change [5]: 17.5 mmhg
- % Inhibition [6]: 20%
- Average Change [6]: 30 mmhg
- % Inhibition [7]: 76%
- Average Change [7]: 11 mmhg
- % Inhibition [8]: 62%
- Average Change [8]: 17 mmhg
- % Inhibition [9]: 56%
- Average Change [9]: 20 mmhg
- % Inhibition [10]: 39%
- Average Change [10]: 27.5 mmhg
- % Inhibition [11]: 50%
- Average Change [11]: 22.5 mmhg
- % Inhibition [12]: 24%
- Average Change [12]: 34 mmhg
- % Inhibition [13]: 0%
- Average Change [13]: 27.5 mmhg
- % Inhibition [14]: -9%
- Average Change [14]: 30 mmhg
- % Inhibition [15]: 13%
- Average Change [15]: 24 mmhg
- % Inhibition [16]: 15%
- Average Change [16]: 23.5 mmhg
- % Inhibition [17]: 5%
- Average Change [17]: 26 mmhg
- % Inhibition [18]: -9%
- Average Change [18]: 30 mmhg
- % Inhibition [19]: -36%
- Average Change [19]: 37.5 mmhg
- % Inhibition [20]: -55%
- Average Change [20]: 42.5 mmhg
- % Inhibition [21]: -11%
- Average Change [21]: 30.5 mmhg
- % Inhibition [22]: -40%
- Average Change [22]: 38.5 mmhg
- Response After AII [1]: 200 mmhg
- Change [23]: 0 mmhg and 5 mmhg
- Response After AII [23]: 205 mmhg
- Response After AII [2]: 220 mmhg
- Change [24]: 15 mmhg and 10 mmhg
- Response After AII [24]: 205 mmhg
- Response After AII [3]: 220 mmhg
- Change [25]: 15 mmhg and 20 mmhg
- Response After AII [25]: 215 mmhg
- Change [4]: 20 mmhg
- Response After AII [4]: 215 mmhg
- Response After AII [5]: 220 mmhg
- Change [26]: 15 mmhg and 20 mmhg
- Response After AII [26]: 215 mmhg
- Change [27]: 25 mmhg and 35 mmhg
- Response After AII [27]: 220 mmhg and 235 mmhg
- Response After AII [7]: 202 mmhg
- Change [28]: 15 mmhg and 7 mmhg
- Response After AII [28]: 205 mmhg
- Change [29]: 19 mmhg and 15 mmhg
- Response After AII [29]: 214 mmhg and 210 mmhg
- Response After AII [9]: 220 mmhg
- Change [30]: 25 mmhg and 15 mmhg
- Response After AII [30]: 215 mmhg
- Change [31]: 30 mmhg and 25 mmhg
- Response After AII [31]: 230 mmhg and 220 mmhg
- Response After AII [11]: 220 mmhg
- Change [32]: 30 mmhg and 15 mmhg
- Response After AII [32]: 225 mmhg
- Change [33]: 33 mmhg and 35 mmhg
- Response After AII [33]: 238 mmhg and 240 mmhg
- Control Before AII (1 mg/kg I.V., before AII 0.05 mcg/kg IV, 30 min post dose): 200 mmhg
- Control Before AII (1 mg/kg I.V., before AII 0.05 mcg/kg IV, 60 min post dose, 1 mg/kg): 205 mmhg and 195 mmhg
- Control Before AII (1 mg/kg I.V., before AII 0.05 mcg/kg IV, 90 min post dose): 200 mmhg
- Control Before AII (1 mg/kg I.V., before AII 0.05 mcg/kg IV, 120 min post dose): 195 mmhg
- Control Before AII (1 mg/kg I.V., before AII 0.05 mcg/kg IV, 180 min post dose, 1 mg/kg): 205 mmhg and 195 mmhg
- Control Before AII (1 mg/kg I.V., before AII 0.05 mcg/kg IV, 240 min post dose, 1 mg/kg): 195 mmhg and 200 mmhg
- Control Before AII (1 mg/kg I.V., before AII 0.1 mcg/kg IV, 30 min post dose, 1 mg/kg): 190 mmhg and 195 mmhg
- Control Before AII (1 mg/kg I.V., before AII 0.1 mcg/kg IV, 60 min post dose): 195 mmhg
- Control Before AII (1 mg/kg I.V., before AII 0.1 mcg/kg IV, 90 min post dose, 1 mg/kg): 195 mmhg and 200 mmhg
- Control Before AII (1 mg/kg I.V., before AII 0.1 mcg/kg IV, 120 min post dose, 1 mg/kg): 200 mmhg and 195 mmhg
- Control Before AII (1 mg/kg I.V., before AII 0.1 mcg/kg IV, 180 min post dose, 1 mg/kg): 195 mmhg and 205 mmhg
- Control Before AII (1 mg/kg I.V., before AII 0.1 mcg/kg IV, 240 min post dose): 205 mmhg
- Change [34]: 30 mmhg and 25 mmhg
- Response After AII [34]: 260 mmhg and 275 mmhg
- Change [14]: 30 mmhg
- Response After AII (2 mg/kg P.O., AII 0.05 mcg/kg IV, 60 min post dose, 2 mg/kg): 265 mmhg and 270 mmhg
- Change [35]: 20 mmhg and 28 mmhg
- Response After AII [35]: 245 mmhg and 258 mmhg
- Change [36]: 17 mmhg and 30 mmhg
- Response After AII [36]: 242 mmhg and 265 mmhg
- Change [37]: 17 mmhg and 35 mmhg
- Response After AII [37]: 252 mmhg and 275 mmhg
- Change [18]: 30 mmhg
- Response After AII (2 mg/kg P.O., AII 0.1 mcg/kg IV, 30 min post dose, 2 mg/kg): 265 mmhg and 275 mmhg
- Change [38]: 35 mmhg and 40 mmhg
- Response After AII [38]: 260 mmhg and 280 mmhg
- Response After AII [20]: 270 mmhg
- Change (2 mg/kg P.O., AII 0.1 mcg/kg IV, 90 min post dose, 2 mg/kg): 45 mmhg and 40 mmhg
- Change [39]: 31 mmhg and 30 mmhg
- Response After AII [39]: 255 mmhg and 270 mmhg
- Change [40]: 32 mmhg and 45 mmhg
- Response After AII [40]: 262 mmhg and 280 mmhg
- Control Before AII (2 mg/kg P.O., before AII 0.05 mcg/kg IV, 30 min post dose): 250 mmhg
- Control Before AII (2 mg/kg P.O., before AII 0.05 mcg/kg IV, 30 min post dose, 2 mg/kg): 230 mmhg
- Control Before AII (2 mg/kg P.O., before AII 0.05 mcg/kg IV, 60 min post dose): 240 mmhg
- Control Before AII (2 mg/kg P.O., before AII 0.05 mcg/kg IV, 60 min post dose, 2 mg/kg): 235 mmhg
- Control Before AII (2 mg/kg P.O., before AII 0.05 mcg/kg IV, 90 min post dose, 2 mg/kg): 225 mmhg and 230 mmhg
- Control Before AII (2 mg/kg P.O., before AII 0.05 mcg/kg IV, 120 min post dose, 2 mg/kg): 225 mmhg and 235 mmhg
- Control Before AII (2 mg/kg P.O., before AII 0.05 mcg/kg IV, 180 min post dose): 240 mmhg
- Control Before AII (2 mg/kg P.O., before AII 0.05 mcg/kg IV, 180 min post dose, 2 mg/kg): 235 mmhg
- Control Before AII (2 mg/kg P.O., before AII 0.1 mcg/kg IV, 30 min post dose, 2 mg/kg): 235 mmhg and 245 mmhg
- Control Before AII (2 mg/kg P.O., before AII 0.1 mcg/kg IV, 60 min post dose): 240 mmhg
- Control Before AII (2 mg/kg P.O., before AII 0.1 mcg/kg IV, 60 min post dose, 2 mg/kg): 225 mmhg
- Control Before AII (2 mg/kg P.O., before AII 0.1 mcg/kg IV, 90 min post dose, 2 mg/kg): 225 mmhg and 230 mmhg
- Control Before AII (2 mg/kg P.O., before AII 0.1 mcg/kg IV, 120 min post dose): 240 mmhg
- Control Before AII (2 mg/kg P.O., before AII 0.1 mcg/kg IV, 120 min post dose, 2 mg/kg): 224 mmhg
- Control Before AII (2 mg/kg P.O., before AII 0.1 mcg/kg IV, 180 min post dose, 2 mg/kg): 230 mmhg and 235 mmhg
